Test results taken from patent US20240157017A1, “A MEDICAL DRESSING COMPRISING A BACTERIOSTATIC COMPOSITION” (Mölnlycke Health Care AB, priority 2021, published 2024).

How the values were obtained:
[1] = system: Pseudomonas aeruginosa (ATCC #15692, PaO1); assay: Bacteriostatic effect on planktonic cultures with different bacterial inoculum sizes in SWF; assay type: cell-based; conditions: 3 mM deferiprone in SWF
Experimental: An evaluation of possible bacteriostatic effect of deferiprone (3 mM) on the gram-negative bacterium Pseudomonas aeruginosa (ATCC #15692, PaO1) and effect of bacterial start concentrations was performed. Deferiprone (3 mM) was dissolved into Simulated Wound Fluid (SWF) (fetal bovine serum (FBS) and Peptone Water (PW) mixed in equal proportions, which correspond to the protein and electrolyte concentration of wound exudates (Emiko Aiba-Kojima, MD et.al Wound Rep Reg (2007) 15 511-520; Trengove, N et al Wound Rep Reg (1996) 4 1067-1927)). Bacterial concentrations ranging from 10−1×10^8 CFU/ml were inoculated into different test tubes +/− Deferiprone (3 mM) in SWF and incubated at 35° C. for 24 hrs before bacterial numbers were determined using petrifilm.

[2] = system: Pseudomonas aeruginosa (ATCC #15692, PaO1); assay: Bacterial growth in wells of Calgary biofilm device (petrifilm); assay type: cell-based; conditions: inoculum 1×10^6 CFU/ml, 24, 48, 72 hrs
Experimental: (§1) An evaluation of possible bacteriostatic effect of deferiprone (3-6 mM) on the gram-negative bacterium Pseudomonas aeruginosa (ATCC #15692, PaO1) and connection to ability to form biofilm on a plastic surface, using the Calgary biofilm device (CBD) (Journal of Clinical Microbiology, June 1999, p. 1771-1776) was performed. This method utilizes 96-well microplates with lids containing 96 plastic cone shaped protrusions that extend into the wells of the plate. By submerging the plastic cones into bacterial solution, biofilm attachment to the pegs can be studied. Different concentrations of Deferiprone (0, 0.37, 0.75, 1.5, 3, 6 mM) were dissolved in Simulated Wound Fluid (SWF) and added to wells in the CBD plate. PaO1 was then inoculated at a total bacterial concentration of 1×10^6 CFU/ml and the lid was placed on the plate. Following incubation at 35° C. for 24, 48, 72 hrs, bacterial concentration from the wells were calculated using petrifilm and the plastic protrusions were analyzed for biofilm attachment using a luminescence kit that quantifies bacterial viability (Promega BacTiter-GLO).

[3] = system: Pseudomonas aeruginosa (ATCC #15692, PaO1); assay: Biofilm attachment to pegs of Calgary biofilm device (Promega BacTiter-GLO luminescence); assay type: cell-based
Experimental: as §1

[4] = system: PaO1 in a biofilm phenotype; assay: Bacteriostatic effect in collagen (wound-like matrix) gels, bacteria in biofilm phenotype; assay type: cell-based, Pseudomonas aeruginosa; conditions: 3 mM deferiprone, different start concentrations, 24 hrs at 35° C.
Experimental: Collagen gels were created and inoculated with 1×10^6 CFU/ml PaO1. Gels were incubated for 24 hrs at 35° C. in order to obtain bacteria in biofilm phenotype. New collagen gels +/−3 mM deferiprone were created and different bacterial start concentrations were inoculated into the gels. Following 24 hrs incubation at 35° C., the gels were solubilized and bacterial counts were measured using petrifilm.

[5] = system: clinical wound isolates of Pseudomonas aeruginosa; assay: Effect on clinical wound isolates in SWF; assay type: cell-based; conditions: 3 mM deferiprone in SWF, 24 hrs at 35° C., all isolates tested
Experimental: Bacteriostatic effect of deferiprone was tested on different clinical wound isolates of Pseudomonas aeruginosa. Isolates were typed according to known virulence factors (FIG. 9a) and subjected for treatment +/−3 mM deferiprone in SWF for 24 hrs at 35° C. Bacterial start concentrations and concentrations after treatment were measured using petrifilm.

Actinobacter baumannii = assay: Bacteriostatic effect on other gram-negative species in SWF; assay type: cell-based; conditions: 3 mM deferiprone in SWF, 24 hrs at 35° C.
Experimental: (§2) The bacteriostatic effect of deferiprone was tested on other gram negative species than Pseudomonas aeruginosa in order to see if the bacteriostatic effect of deferiprone extends to other gram negative species. The following bacteria were tested: Actinobacter baumannii, Echerschia coli, Klebsiella pneumoniae +/−3 mM deferiprone in SWF for 24 hrs at 35° C. Bacterial start concentrations and concentrations after treatment were measured using petrifilm.

Echerschia coli = assay: as above; assay type: cell-based; conditions: 3 mM deferiprone in SWF, 24 hrs at 35° C.
Experimental: as §2

Klebsiella pneumoniae = assay: as above; assay type: cell-based; conditions: 3 mM deferiprone in SWF, 24 hrs at 35° C.
Experimental: as §2

PaO1 = assay: Growth of planktonic PaO1 at sub-bacteriostatic concentrations in SWF; assay type: cell-based, Pseudomonas aeruginosa; conditions: 1×10^6 CFU/ml, 72 hrs at 35° C.
[6] = system: virulence factor pyoverdine; assay: Pyoverdine levels in supernatants by LC-MS; assay type: cell-based, Pseudomonas aeruginosa; conditions: 0.03 and 0.3 mM deferiprone in SWF, 72 hrs at 35° C.
Experimental: In order to evaluate if sub-bacteriostatic concentrations (<3 mM) of deferiprone have an effect on the virulence factor pyoverdine, supernatants of planktonically grown PaO1 (1×10^6 CFU/ml) +/− deferiprone at 0.3 and 0.03 mM in SWF were analyzed by LC-MS for pyoverdine after 72 hrs at 35° C.

Cc1c(O)c(=O)ccn1C [deferiprone]
bacterial concentration after 24 hrs ([1]; 35° C., 24 hrs): equals the bacterial start concentration | effect on growth of PaO1 in planktonic cultures ([1]; 35° C., 24 hrs, different start inoculums): true bacteriostatic effect | toxicity to PaO1 ([1]; different start inoculums): non-toxic | effect on growth of PaO1 in CBD wells ([2]; 3 mM deferiprone in SWF): bacteriostatic | effect on growth of PaO1 in CBD wells ([2]; 6 mM deferiprone in SWF): bacteriostatic | biofilm formation on pegs of CBD plate ([3]; 3 mM deferiprone in SWF, 24, 48, 72 hrs): No biofilm was formed | biofilm formation on pegs of CBD plate ([3]; 6 mM deferiprone in SWF, 24, 48, 72 hrs): No biofilm was formed | biofilm formation on pegs of CBD plate (read-out signal) ([3]; all other concentrations (0.37, 0.75, 1.5 mM) of deferiprone in SWF): full growth | effect on growth of PaO1 in collagen gel [4]: a bacteriostatic effect is observed | effect on growth of clinical wound isolates [5]: bacteriostatic effects | effect on growth of Actinobacter baumannii (Actinobacter baumannii): sensitive | effect on growth of Echerschia coli (Echerschia coli): same bacteriostatic effects | effect on growth of Klebsiella pneumoniae (Klebsiella pneumoniae): sensitive | effect on growth characteristics of PaO1 (PaO1; 0.03 mM deferiprone in SWF): does not affect growth characteristics | effect on growth characteristics of PaO1 (PaO1; 0.3 mM deferiprone in SWF): does not affect growth characteristics | pyoverdine levels in supernatants [6]: dose-dependent decrease
